This is an account of results in ChEMBL document CHEMBL1909046, “DrugMatrix in vitro pharmacology data”.

Data set [1] can be described thus: DRUGMATRIX: Tumor Necrosis Factor (TNF), Non-Selective radioligand binding (ligand: [125I] TNF-alpha). In kind it is cell membranes, Membrane. The conditions noted are these: u-937; Not Active = under 50% inhibition at 10 µM.
Data set [2] deals with Vasopressin V1a receptor (Homo sapiens, UniProt P37288). In kind it is cell membranes, Membrane. The conditions noted are these: hek293.
Data set [3] has as its target Cytochrome P450 3A4 (Homo sapiens, UniProt P08684). The settings on record: bti-tn-5b1-4. Note: in other assays of this panel Not Active means under 50% inhibition at 10 µM.
Data set [4] has as its target 5-hydroxytryptamine receptor 1B (Rattus norvegicus, UniProt P28564). In kind it is cell membranes, Wistar, Cerebral cortex, Membrane. Note: in other assays of this panel Not Active means under 50% inhibition at 10 µM.
The target in data set [5] is Beta-1 adrenergic receptor (Homo sapiens, UniProt P08588). The data set can be described thus: DRUGMATRIX: Adrenergic beta1 radioligand binding (ligand: [125I] Cyanopindolol). In kind it is cell membranes, CHO-K1, Membrane. The conditions noted are these: cho-k1; Not Active = under 50% inhibition at 10 µM.
Data set [6] concerns the target T1, Type-2 angiotensin II receptor (Homo sapiens, UniProt P50052). Note: in other assays of this panel Not Active means under 50% inhibition at 10 µM.
T1 sequence (P50052 whole entry): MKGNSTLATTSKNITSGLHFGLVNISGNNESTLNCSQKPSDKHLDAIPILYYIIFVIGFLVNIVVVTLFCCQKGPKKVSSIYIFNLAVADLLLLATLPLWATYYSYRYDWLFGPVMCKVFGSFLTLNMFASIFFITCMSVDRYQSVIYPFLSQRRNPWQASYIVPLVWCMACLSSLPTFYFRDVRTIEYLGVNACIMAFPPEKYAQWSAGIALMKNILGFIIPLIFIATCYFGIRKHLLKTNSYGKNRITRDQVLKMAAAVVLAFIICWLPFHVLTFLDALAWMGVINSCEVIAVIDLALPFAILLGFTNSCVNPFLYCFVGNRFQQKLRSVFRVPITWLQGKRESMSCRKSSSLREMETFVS
In kind it is cell-based. The conditions noted are these: cho-k1.

Data set [7] deals with T2, Calcitonin receptor (Homo sapiens, UniProt P30988).
T2 sequence (P30988 whole entry): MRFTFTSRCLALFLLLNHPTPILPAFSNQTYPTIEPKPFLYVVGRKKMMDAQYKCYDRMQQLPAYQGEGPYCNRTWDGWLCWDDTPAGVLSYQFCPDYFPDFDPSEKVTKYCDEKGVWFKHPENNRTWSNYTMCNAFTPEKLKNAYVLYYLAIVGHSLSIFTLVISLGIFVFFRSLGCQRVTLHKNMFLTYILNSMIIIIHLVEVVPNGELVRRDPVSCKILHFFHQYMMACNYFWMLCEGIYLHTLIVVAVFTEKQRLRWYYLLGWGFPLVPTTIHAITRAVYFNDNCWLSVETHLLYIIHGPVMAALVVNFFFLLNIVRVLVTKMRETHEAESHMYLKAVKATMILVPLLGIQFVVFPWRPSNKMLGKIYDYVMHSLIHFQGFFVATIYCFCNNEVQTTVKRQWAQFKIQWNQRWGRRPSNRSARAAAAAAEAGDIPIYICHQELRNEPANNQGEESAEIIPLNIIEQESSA
In kind it is cell membranes, Membrane. The settings on record: t47d.

In data set [8] the target is Cannabinoid receptor 1 (Homo sapiens, UniProt P21554). In kind it is cell membranes, Membrane. The conditions noted are these: chem-1. Note: in other assays of this panel Not Active means under 50% inhibition at 10 µM.
Cannabinoid receptor 1, sequence (P21554 whole entry): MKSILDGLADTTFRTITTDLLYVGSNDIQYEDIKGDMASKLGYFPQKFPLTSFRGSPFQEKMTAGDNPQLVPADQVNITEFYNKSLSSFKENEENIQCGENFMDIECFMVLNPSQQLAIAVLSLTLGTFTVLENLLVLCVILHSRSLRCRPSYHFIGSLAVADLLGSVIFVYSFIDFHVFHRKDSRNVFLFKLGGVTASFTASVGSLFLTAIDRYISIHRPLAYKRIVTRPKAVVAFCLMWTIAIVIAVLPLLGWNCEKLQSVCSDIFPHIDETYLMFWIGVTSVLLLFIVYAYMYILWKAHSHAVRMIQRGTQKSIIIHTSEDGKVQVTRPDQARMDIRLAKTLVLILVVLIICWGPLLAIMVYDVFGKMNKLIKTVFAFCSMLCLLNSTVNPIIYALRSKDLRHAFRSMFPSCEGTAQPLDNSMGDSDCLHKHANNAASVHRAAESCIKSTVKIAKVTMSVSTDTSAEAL

Beta-1 adrenergic receptor, sequence (P08588 whole entry): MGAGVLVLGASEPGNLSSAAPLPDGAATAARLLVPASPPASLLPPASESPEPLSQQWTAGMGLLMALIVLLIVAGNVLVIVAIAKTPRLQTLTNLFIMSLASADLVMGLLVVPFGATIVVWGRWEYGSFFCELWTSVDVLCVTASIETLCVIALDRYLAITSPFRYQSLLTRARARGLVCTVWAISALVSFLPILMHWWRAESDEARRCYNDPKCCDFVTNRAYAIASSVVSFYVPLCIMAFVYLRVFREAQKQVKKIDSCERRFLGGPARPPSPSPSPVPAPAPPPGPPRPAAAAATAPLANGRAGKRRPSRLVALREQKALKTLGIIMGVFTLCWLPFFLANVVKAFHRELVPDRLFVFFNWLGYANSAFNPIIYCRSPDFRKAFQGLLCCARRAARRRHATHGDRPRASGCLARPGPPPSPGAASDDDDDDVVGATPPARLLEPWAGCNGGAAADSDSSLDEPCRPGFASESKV
5-hydroxytryptamine receptor 1B, sequence (P28564 whole entry): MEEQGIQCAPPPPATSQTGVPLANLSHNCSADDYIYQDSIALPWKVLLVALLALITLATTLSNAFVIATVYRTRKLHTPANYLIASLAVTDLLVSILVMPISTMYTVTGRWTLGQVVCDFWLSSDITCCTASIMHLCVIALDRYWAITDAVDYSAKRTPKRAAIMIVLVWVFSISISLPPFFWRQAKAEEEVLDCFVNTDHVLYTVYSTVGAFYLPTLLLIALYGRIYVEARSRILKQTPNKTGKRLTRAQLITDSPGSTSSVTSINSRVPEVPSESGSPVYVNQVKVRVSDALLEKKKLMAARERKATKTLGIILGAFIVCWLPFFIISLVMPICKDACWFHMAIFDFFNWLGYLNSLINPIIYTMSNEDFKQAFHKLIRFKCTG
Vasopressin V1a receptor, sequence (P37288 whole entry): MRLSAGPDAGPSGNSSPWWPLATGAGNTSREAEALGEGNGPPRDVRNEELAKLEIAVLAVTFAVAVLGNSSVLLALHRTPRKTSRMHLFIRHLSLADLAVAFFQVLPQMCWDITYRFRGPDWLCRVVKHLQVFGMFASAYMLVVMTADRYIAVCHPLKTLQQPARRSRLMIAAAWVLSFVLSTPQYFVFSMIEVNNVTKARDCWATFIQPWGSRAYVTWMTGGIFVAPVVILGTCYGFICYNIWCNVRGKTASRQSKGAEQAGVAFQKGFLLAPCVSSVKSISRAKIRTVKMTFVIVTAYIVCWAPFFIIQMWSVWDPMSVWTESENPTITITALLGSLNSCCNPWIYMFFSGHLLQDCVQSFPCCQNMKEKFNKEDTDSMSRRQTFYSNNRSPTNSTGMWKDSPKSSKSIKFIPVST
Cytochrome P450 3A4, sequence (P08684 whole entry): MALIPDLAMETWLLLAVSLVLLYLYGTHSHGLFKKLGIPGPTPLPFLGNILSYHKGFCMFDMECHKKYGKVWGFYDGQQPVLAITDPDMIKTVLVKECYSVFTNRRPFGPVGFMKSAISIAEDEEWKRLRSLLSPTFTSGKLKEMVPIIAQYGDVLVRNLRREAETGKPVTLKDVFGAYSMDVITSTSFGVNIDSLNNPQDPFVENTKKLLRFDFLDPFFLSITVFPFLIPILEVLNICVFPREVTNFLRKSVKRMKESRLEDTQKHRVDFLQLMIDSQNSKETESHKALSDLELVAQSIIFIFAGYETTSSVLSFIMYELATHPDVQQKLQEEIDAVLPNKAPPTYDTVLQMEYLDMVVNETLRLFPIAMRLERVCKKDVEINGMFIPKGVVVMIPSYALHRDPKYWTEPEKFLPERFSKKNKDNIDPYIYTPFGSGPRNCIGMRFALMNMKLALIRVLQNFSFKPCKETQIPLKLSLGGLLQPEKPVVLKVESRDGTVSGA

As a reminder, the IC50 is the midpoint of a concentration-inhibition curve. For orientation: Ki means the equilibrium dissociation constant of an inhibitor or competing ligand from its target. With `CC1(C)O[C@@H]2C[C@H]3[C@@H]4CCC5=CC(=O)CC[C@]5(C)[C@@]4(F)[C@@H](O)C[C@]3(C)[C@]2(C(=O)CCl)O1` [HALCINONIDE], the half-inhibitory concentration (IC50) result in data set [1], in data set [2], in data set [3], in data set [4], in data set [5] and in data set [6] was “Not Active” in each case. Besides, the IC50 entry in data set [7] and in data set [8] was “Not Active” each time. Moreover, the Ki result in data set [1] and in data set [3] was “Not Active” each time.

`O=c1[nH]c(=O)n([C@H]2C[C@H](O)[C@@H](CO)O2)cc1I` [IDOXURIDINE]: the IC50 result in data set [1], in data set [2], in data set [3], in data set [4], in data set [5] and in data set [6] was “Not Active” in each case. The IC50 entry in data set [7] and in data set [8] was “Not Active” throughout. In addition, the Ki entry in data set [1] and in data set [3] was “Not Active” throughout.

For the compound `CC1Cc2ccccc2N1NC(=O)c1ccc(Cl)c(S(N)(=O)=O)c1` (stereo unspecified) [INDAPAMIDE], the IC50 entry in data set [1], in data set [2], in data set [3], in data set [4], in data set [5] and in data set [6] was “Not Active” throughout. Besides, the IC50 entry in data set [7] and in data set [8] was “Not Active” each time. Also, the Ki result in data set [1] and in data set [3] was “Not Active” each time.

With `CCCCN1CCCC[C@H]1C(=O)Nc1c(C)cccc1C` [LEVOBUPIVACAINE], the IC50 result in data set [1], in data set [2], in data set [3], in data set [4], in data set [5] and in data set [6] was “Not Active” in each case. Moreover, the IC50 entry in data set [7] and in data set [8] was “Not Active” each time. The Ki result in data set [1] and in data set [3] was “Not Active” throughout.

Take `CCCCc1nc(Cl)c(CO)n1Cc1ccc(-c2ccccc2-c2nnn[nH]2)cc1` [LOSARTAN]: the IC50 result in data set [1], in data set [2], in data set [3], in data set [4], in data set [5] and in data set [6] was “Not Active” in each case. Moreover, the IC50 result in data set [7] and in data set [8] was “Not Active” throughout. Also, the Ki result in data set [1] and in data set [3] was “Not Active” each time.

For the compound `Sc1ncnc2nc[nH]c12` [MERCAPTOPURINE ANHYDROUS], the IC50 result in data set [1], in data set [2], in data set [3], in data set [4], in data set [5] and in data set [6] was “Not Active” each time. In addition, the IC50 result in data set [7] and in data set [8] was “Not Active” in each case. The Ki result in data set [1] and in data set [3] was “Not Active” in each case.

For `C[C@](N)(Cc1ccc(O)c(O)c1)C(=O)O` [METHYLDOPA], the IC50 entry in data set [1], in data set [2], in data set [3], in data set [4], in data set [5] and in data set [6] was “Not Active” each time. In addition, the IC50 result in data set [7] and in data set [8] was “Not Active” each time. The Ki entry in data set [1] and in data set [3] was “Not Active” each time.

Consider `C[C@]12CCC(=O)C=C1CC[C@@H]1[C@@H]2CC[C@@]2(C)[C@H]1CC[C@]2(C)O` [METHYLTESTOSTERONE], for which the IC50 entry in data set [1], in data set [2], in data set [3], in data set [4], in data set [5] and in data set [6] was “Not Active” in each case. For the same compound, the IC50 result in data set [7] and in data set [8] was “Not Active” each time. Moreover, the Ki entry in data set [1] and in data set [3] was “Not Active” in each case.

With `Cc1ccccc1N1C(=O)c2cc(S(N)(=O)=O)c(Cl)cc2NC1C` (stereo unspecified) [METOLAZONE], the IC50 entry in data set [1], in data set [2], in data set [3], in data set [4], in data set [5] and in data set [6] was “Not Active” in each case. The IC50 entry in data set [7] and in data set [8] was “Not Active” in each case. Further, the Ki entry in data set [1] and in data set [3] was “Not Active” each time.

Regarding `CCn1cc(C(=O)O)c(=O)c2cc(F)c(N3CCNCC3)cc21` [NORFLOXACIN], the IC50 entry in data set [1], in data set [2], in data set [3], in data set [4], in data set [5] and in data set [6] was “Not Active” each time. The IC50 entry in data set [7] and in data set [8] was “Not Active” throughout. For the same compound, the Ki result in data set [1] and in data set [3] was “Not Active” each time.

As to `NC1=NC(=O)C(c2ccccc2)O1` (stereo unspecified) [PEMOLINE], the IC50 entry in data set [1], in data set [2], in data set [3], in data set [4], in data set [5] and in data set [6] was “Not Active” throughout. In addition, the IC50 entry in data set [7] and in data set [8] was “Not Active” in each case. Also, the Ki result in data set [1] and in data set [3] was “Not Active” throughout.

For the compound `Nc1nc2c(ncn2CCC(CO)CO)c(=O)[nH]1` [PENCICLOVIR], the IC50 result in data set [1], in data set [2], in data set [3], in data set [4], in data set [5] and in data set [6] was “Not Active” each time. The IC50 entry in data set [7] and in data set [8] was “Not Active” throughout. Also, the Ki entry in data set [1] and in data set [3] was “Not Active” in each case.

As for `C=C(C)C1(O)OC(=O)C=C1OC` (stereo unspecified) [PENICILLIC ACID], the IC50 entry in data set [1], in data set [2], in data set [3], in data set [4], in data set [5] and in data set [6] was “Not Active” each time. For the same compound, the IC50 result in data set [7] and in data set [8] was “Not Active” each time. Also, the Ki entry in data set [1] and in data set [3] was “Not Active” each time.

Take `CCCN1C[C@H](CSC)C[C@@H]2c3cccc4[nH]cc(c34)C[C@H]21` [PERGOLIDE]: the IC50 entry in data set [1] was “Not Active”; in data set [2], “Not Active”; in data set [3], “Not Active”; in data set [4] (read-out: IC50), 87 nM; in data set [5], “Not Active”; in data set [6], “Not Active”. Also, the IC50 result in data set [7] and in data set [8] was “Not Active” each time. In addition, the Ki entry in data set [1] was “Not Active”; in data set [3], “Not Active”; in data set [4] (read-out: Ki), 40 nM.

Consider `C1CCC(C(CC2CCCCN2)C2CCCCC2)CC1` (stereo unspecified) [PERHEXILINE], for which the concentration for half-maximal inhibition (IC50) entry in data set [1], in data set [2], in data set [3], in data set [4], in data set [5] and in data set [6] was “Not Active” each time. Moreover, the IC50 result in data set [7] and in data set [8] was “Not Active” throughout. The Ki entry in data set [1] and in data set [3] was “Not Active” in each case.

Consider `CCOc1ccc(NC(C)=O)cc1` [PHENACETIN], for which the IC50 entry in data set [1], in data set [2], in data set [3], in data set [4], in data set [5] and in data set [6] was “Not Active” throughout. The IC50 result in data set [7] and in data set [8] was “Not Active” each time. The Ki result in data set [1] and in data set [3] was “Not Active” throughout.

As to `CNNCc1ccc(C(=O)NC(C)C)cc1` [PROCARBAZINE], the IC50 result in data set [1], in data set [2], in data set [3], in data set [4], in data set [5] and in data set [6] was “Not Active” in each case. Also, the IC50 result in data set [7] and in data set [8] was “Not Active” in each case. The Ki result in data set [1] and in data set [3] was “Not Active” each time.

For `CC(O)CO` (stereo unspecified) [PROPYLENE GLYCOL], the IC50 result in data set [1], in data set [2], in data set [3], in data set [4], in data set [5] and in data set [6] was “Not Active” throughout. Also, the IC50 result in data set [7] and in data set [8] was “Not Active” throughout. The Ki entry in data set [1] and in data set [3] was “Not Active” each time.
